Assay results published in patent publication EP1295874A2, “Retroviral protease inhibiting compounds” (Abbott Laboratories, priority 1995, dated 1997).
Like-named read-outs stand apart in the source and are kept apart here.

Legend:
[1] = system: Ritonavir-Resistant HIV from Patients; experiment: microbe, parasite or virus in culture; format: cell-based
[2] = 50% lethal concentration in uninfected MT4 cells (MTT); format: cell-based; conditions: human, read-out: LC50
Text: (§1) The anti-HIV activity of the compound of the invention can be determined in MT4 cells according to the following procedure. MT4 cells were infected with cell-free supernatant of HIVIIIB (previously frozen with known 50% tissue culture infectious dose (TCID50) at 0.003 multiplicity of infection (MOI) for one hour. After one hour infection, cells were washed twice to remove residual viruses, resuspended in culture media and seeded into 96-well tissue culture plates at 1x10^4 cells per well with various half-log dilutions of compounds. Uninfected cells are included as toxicity and cell controls. RPMI 1640 media (Gibco ) with 10% fetal bovine serum were used as culture media. Various concentrations of human serum (Sigma) 50%, 25% and 12.5% were added to culture media resulting in final concentration of 60%, 35% and 22.5% total serum. All assay plates were incubated in 37 deg. cent. incubator for 5 days. MTT (sigma, 5 mg/ml stock in PBS) was added to all wells at 25 ul per well, incubate for 4 hours. 20%SDS with 0.02 N HCl in water was added at 50 ul per well to lyse cellls. Plates incubated overnight for complete lyses were read on a microtitre plate reader at 570/650 nm wavelengths to determine cell optical density (O.D.). Raw data were analysed for percent inhibition by the following formula: (O.D. test well - O.D. virus control)/(O.D. cell control -O.D. virus control)x100 [formula] The 50% effective concentration (EC50) was calculated by the median effect equation (Chou, 1975,Proc. Int. Cong. Pharmacol. 6th p. 619) to determine the efficacy of compound. The 50% lethal concentration (LC50) was calculated using uninfected MT4 cells.
(§2) Under these conditions, the following data were obtained (n = 4 duplicate determinations: Table 2

HIVIIIB = experiment: Antiviral activity (anti-HIV activity) in MT4 cells, MTT readout; format: cell-based; conditions: Human immunodeficiency virus 1, MT4, 120 h, read-out: IC50 (µM, 0% plasma)
Text: as §1, §2

[3] = system: Ritonavir-Resistant Mutant HIV Clones; experiment: microbe, parasite or virus in culture; format: cell-based
HIV protease = target: T1, HIV protease (Human immunodeficiency virus type 1 group M subtype B, UniProt P04585); experiment: Fluorogenic Assay for Screening Inhibitors of HIV Protease; format: biochemical; conditions: Inhibitor Concentration 0.5 nanomolar; read-out: Percent Inhibition
T1 construct: HIV protease consists of two identical subunits, each of which has 99 amino acid residues
Protocol: The inhibitory potency of the compound of the invention can be determined by the following method.
The compound of the invention is dissolved in DMSO and a small aliquot further diluted with DMSO to 100 times the final concentration desired for testing. The reaction is carried out in a 6 X 50 mm tube in a total volume of 300 microliters. The final concentrations of the components in the reaction buffer are: 125 mM sodium acetate, 1 M sodium chloride, 5 mM dithiothreitol, 0.5 mg/ml bovine serum albumin, 1.3 µM fluorogenic substrate, 2% (v/v) dimethylsulfoxide, pH 4.5. After addition of inhibitor, the reaction mixture is placed in the fluorometer cell holder and incubated at 30°C for several minutes. The reaction is initiated by the addition of a small aliquot of cold HIV protease. The fluorescence intensity (excitation 340 nm, emmision 490 nM) is recorded as a function of time. The reaction rate is determined for the first six to eight minutes. The observed rate is directly proportional to the moles of substrate cleaved per unit time. The percent inhibition is 100 X (1 - (rate in presence of inhibitor)/(rate in absence of inhibitor)).
Fluorogenic substrate: Dabcyl-Gaba-Ser-Gln-Asn-Tyr-Pro-lle-Val-Gln-EDANS wherein DABCYL = 4-(4-dimethylamino-phenyl)azobenzoic acid, Gaba = γ-aminobutyric acid, and EDANS = 5-((2-aminoethyl)amino)-naphthalene-1-sulfonic acid.

[4] = system: HIV Selected In Vitro by the Compound of Example 2B; experiment: microbe, parasite or virus in culture; format: cell-based
Passaged HIV-1 = experiment: Phenotypic susceptibility of in vitro passaged HIV-1 to the compound of Example 2B (MTT colorimetric assay); format: cell-based

## Cc1cccc(C)c1OCC(=O)N[C@@H](Cc1ccccc1)[C@@H](O)C[C@H](Cc1ccccc1)NC(=O)[C@H](C(C)C)N1CCCNC1=O [Example 2B, (2S, 3S, 5S)-2-(2,6-Dimethylphenoxyacetyl) amino-3-hydroxy-5-[2S-(1-tetrahydro-pyrimid-2-onyl)-3-methylbutanoyl] amino-1,6-diphenylhexane]
[1]; Human immunodeficiency virus 1, 24 h, Patient No. 313, Day 1, baseline
  EC50: 4 nM
[1]; Human immunodeficiency virus 1, 24 h, Patient No. 410, Day 1, baseline
  EC50: 6 nM
[1]; Human immunodeficiency virus 1, 504 h, Patient No. 104, Day 21, V82A
  EC50: 9 nM
[1]; Human immunodeficiency virus 1, 672 h, Patient No. 104, Day 28, V82T
  EC50: 13 nM
[1]; Human immunodeficiency virus 1, Patient No. 104, Day -1, baseline
  EC50: 8 nM
[1]; Human immunodeficiency virus 1, Patient No. 129, Day 84, M36I, I54V, A71V, V82T
  EC50: 33 nM
[1]; Human immunodeficiency virus 1, Patient No. 129, Day 140, K20K/R, M36M/I, I54V, A71A/V, V82T
  EC50: 29 nM
[1]; Human immunodeficiency virus 1, Patient No. 129, Day -1, baseline
  EC50: 5 nM
[1]; Human immunodeficiency virus 1, Patient No. 131, Day 88, M36I, 154V>I, V82A
  EC50: 15 nM
[1]; Human immunodeficiency virus 1, Patient No. 131, Day 200, K20K/R, M36I, I54I/V, V82A
  EC50: 52 nM
[1]; Human immunodeficiency virus 1, Patient No. 131, Day -28, baseline
  EC50: 4 nM
[1]; Human immunodeficiency virus 1, Patient No. 224, Day 110, L33L/F, V82T/S
  EC50: 12 nM
[1]; Human immunodeficiency virus 1, Patient No. 224, Day 190, K20K/N/R, L33L/F, M36M/I, I54V/M, V82S
  EC50: 52 nM
[1]; Human immunodeficiency virus 1, Patient No. 224, Day -6, baseline
  EC50: 6 nM
[1]; Human immunodeficiency virus 1, Patient No. 235, Day 167, I54I/V, A71V, V82A. L90L/M
  EC50: 6 nM
[1]; Human immunodeficiency virus 1, Patient No. 235, Day -1, baseline
  EC50: 6 nM
[1]; Human immunodeficiency virus 1, Patient No. 313, Day 57, M36M/I, V82F
  EC50: 11 nM
[1]; Human immunodeficiency virus 1, Patient No. 313, Day 85, M36M/I, I54I/V, V82S/F/A/T
  EC50: 25 nM
[1]; Human immunodeficiency virus 1, Patient No. 410, Day 57, M36M/I, I54I/V, V82A
  EC50: 33 nM
[1]; Human immunodeficiency virus 1, Patient No. 410, Day 85, M36I, I54V, V82A
  EC50: 97 nM
[2]
  CC50 at 120 h: 17.8 µM
HIVIIIB
  IC50: 0.016 µM
[3]; Human immunodeficiency virus 1, HXB2, Virus Clone Wild Type (HXB2), 0% Human Serum
  EC50: 12 nM
[3]; Human immunodeficiency virus 1, HXB2, Virus Clone Wild Type (HXB2), 50% Human Serum
  EC50: 51 nM
[3]; Human immunodeficiency virus 1, Virus Clone E35D, M36I, I54V, A71V, V82T, 0% Human Serum
  EC50: 83 nM
[3]; Human immunodeficiency virus 1, Virus Clone E35D, M36I, I54V, A71V, V82T, 50% Human Serum
  EC50: 691 nM
[3]; Human immunodeficiency virus 1, Virus Clone G48V, 0% Human Serum
  EC50: 8 nM
[3]; Human immunodeficiency virus 1, Virus Clone G48V, 50% Human Serum
  EC50: 156 nM
[3]; Human immunodeficiency virus 1, Virus Clone I54V, V82T, 0% Human Serum
  EC50: 213 nM
[3]; Human immunodeficiency virus 1, Virus Clone I54V, V82T, 50% Human Serum
  EC50: 1150 nM
[3]; Human immunodeficiency virus 1, Virus Clone I84V, 0% Human Serum
  EC50: 20 nM
[3]; Human immunodeficiency virus 1, Virus Clone I84V, 50% Human Serum
  EC50: 170 nM
[3]; Human immunodeficiency virus 1, Virus Clone K20R, E35D, M36I, I54V, A71V, V82T, 0% Human Serum
  EC50: 93 nM
[3]; Human immunodeficiency virus 1, Virus Clone K20R, E35D, M36I, I54V, A71V, V82T, 50% Human Serum
  EC50: 376 nM
[3]; Human immunodeficiency virus 1, Virus Clone L90M, 0% Human Serum
  EC50: 16 nM
[3]; Human immunodeficiency virus 1, Virus Clone L90M, 50% Human Serum
  EC50: 180 nM
[3]; Human immunodeficiency virus 1, Virus Clone V82A, 0% Human Serum
  EC50: 33 nM
[3]; Human immunodeficiency virus 1, Virus Clone V82A, 50% Human Serum
  EC50: 268 nM
[3]; Human immunodeficiency virus 1, Virus Clone V82F, 0% Human Serum
  EC50: 26 nM
[3]; Human immunodeficiency virus 1, Virus Clone V82F, 50% Human Serum
  EC50: 147 nM
[3]; Human immunodeficiency virus 1, Virus Clone V82S, 0% Human Serum
  EC50: 26 nM
[3]; Human immunodeficiency virus 1, Virus Clone V82S, 50% Human Serum
  EC50: 314 nM
[3]; Human immunodeficiency virus 1, Virus Clone V82T, 50% Human Serum
  EC50: 147 nM
[3]; Human immunodeficiency virus 1, Virus Clone Wild Type (pNL4-3), 0% Human Serum
  EC50: 22 nM
[3]; Human immunodeficiency virus 1, Virus Clone Wild Type (pNL4-3), 50% Human Serum
  EC50: 126 nM
HIV protease
  inhibition at 0.0005 µM: 93.2%
[4]; Human immunodeficiency virus 1, NL43, Virus NL4-3
  EC50: 28 nM
[4]; Human immunodeficiency virus 1, Virus P7
  EC50: 116 nM
[4]; Human immunodeficiency virus 1, Virus P11
  EC50: 349 nM
[4]; Human immunodeficiency virus 1, Virus P14
  EC50: 1280 nM
[4]; Human immunodeficiency virus 1, Virus P17
  EC50: 9480 nM
Passaged HIV-1; Human immunodeficiency virus 1, 384 h, read-out: The compound of Example 2B EC50 (µM), Virus P2 (selected at 0.02 µM, 16 days in culture)
  EC50: 0.025 µM
Passaged HIV-1; Human immunodeficiency virus 1, NL43, read-out: The compound of Example 2B EC50 (µM), Virus NL4-3
  EC50: 0.028 µM
Passaged HIV-1; Human immunodeficiency virus 1, read-out: The compound of Example 2B EC50 (µM), Virus P6 (selected at 0.12 µM, 58 days in culture)
  EC50: 0.149 µM
Passaged HIV-1; Human immunodeficiency virus 1, read-out: The compound of Example 2B EC50 (µM), Virus P7 (selected at 0.15 µM, 65 days in culture)
  EC50: 0.201 µM
Passaged HIV-1; Human immunodeficiency virus 1, read-out: The compound of Example 2B EC50 (µM), Virus P8 (selected at 0.21 µM, 75 days in culture)
  EC50: 0.295 µM
Passaged HIV-1; Human immunodeficiency virus 1, read-out: The compound of Example 2B EC50 (µM), Virus P9 (selected at 0.30 µM, 82 days in culture)
  EC50: 0.333 µM
Passaged HIV-1; Human immunodeficiency virus 1, read-out: The compound of Example 2B EC50 (µM), Virus P10 (selected at 0.30 µM, 93 days in culture)
  EC50: 0.464 µM
Passaged HIV-1; Human immunodeficiency virus 1, read-out: The compound of Example 2B EC50 (µM), Virus P11 (selected at 0.42 µM, 100 days in culture)
  EC50: 0.346 µM
Passaged HIV-1; Human immunodeficiency virus 1, read-out: The compound of Example 2B EC50 (µM), Virus P12 (selected at 0.62 µM, 107 days in culture)
  EC50: 0.291 µM
Passaged HIV-1; Human immunodeficiency virus 1, read-out: The compound of Example 2B EC50 (µM), Virus P13 (selected at 0.80 µM, 114 days in culture)
  EC50: 1 µM
Passaged HIV-1; Human immunodeficiency virus 1, read-out: The compound of Example 2B EC50 (µM), Virus P14 (selected at 1.10 µM, 121 days in culture)
  EC50: 1.11 µM
Passaged HIV-1; Human immunodeficiency virus 1, read-out: The compound of Example 2B EC50 (µM), Virus P15 (selected at 1.50 µM, 128 days in culture)
  EC50: 1.34 µM
Passaged HIV-1; Human immunodeficiency virus 1, read-out: The compound of Example 2B EC50 (µM), Virus P16 (selected at 2.00 µM, 135 days in culture)
  EC50: 1.43 µM
